# Data from ChEMBL document CHEMBL3045441, “Microwave-assisted CAN-catalyzed solvent-free synthesis of N-allyl quinolone-based pyrano[4,3-b]chromene and benzopyrano[3,2-c]chromene derivatives and their antimicrobial activity” (2013).
# How the values were obtained:
# Assay type in all cases: functional
# Escherichia coli = assay: Antimicrobial activity against Escherichia coli MTCC 443 assessed as growth inhibition after 24 hr by NCCLS broth microdilution method; conditions: MTCC 443, 24 h
# Streptococcus pyogenes = assay: Antimicrobial activity against Streptococcus pyogenes MTCC 442 assessed as growth inhibition after 24 hr by NCCLS broth microdilution method; conditions: MTCC 442, 24 h
# Pseudomonas aeruginosa = assay: Antimicrobial activity against Pseudomonas aeruginosa MTCC 1688 assessed as growth inhibition after 24 hr by NCCLS broth microdilution method; conditions: MTCC 1688, 24 h
# Staphylococcus aureus = assay: Antimicrobial activity against Staphylococcus aureus MTCC 96 assessed as growth inhibition after 24 hr by NCCLS broth microdilution method; conditions: MTCC 96, 24 h
# Candida albicans = assay: Antimicrobial activity against Candida albicans MTCC 227 assessed as growth inhibition after 48 hr by NCCLS broth microdilution method
# Aspergillus niger = assay: Antimicrobial activity against Aspergillus niger MTCC 282 assessed as growth inhibition after 48 hr by NCCLS broth microdilution method
# Aspergillus clavatus = assay: Antimicrobial activity against Aspergillus clavatus MTCC 1323 assessed as growth inhibition after 48 hr by NCCLS broth microdilution method
Molecule,MIC (Escherichia coli) [µg/mL],MIC (Streptococcus pyogenes) [µg/mL],MIC (Pseudomonas aeruginosa) [µg/mL],MIC (Staphylococcus aureus) [µg/mL],"MIC (Candida albicans; MTCC 227, 48 h) [µg/mL]","MIC (Aspergillus niger; MTCC 282, 48 h) [µg/mL]","MIC (Aspergillus clavatus; MTCC 1323, 48 h) [µg/mL]",MIC (Candida albicans) [µg/mL],MIC (Aspergillus niger) [µg/mL],MIC (Aspergillus clavatus) [µg/mL]
C=CCn1c(=O)c(C2C3=C(CCCC3=O)Oc3c2c(=O)oc2ccccc32)cc2ccccc21 (stereo not drawn),62.5,200,100,200,500,> 1000,> 1000,,,
C=CCn1c(=O)c(C2C3=C(CC(C)(C)CC3=O)Oc3cc(C)oc(=O)c32)cc2ccccc21 (stereo not drawn),100,250,62.5,500,500,500,500,,,
C=CCn1c(=O)c(C2C3=C(CCCC3=O)Oc3c2c(=O)oc2ccccc32)cc2cc(Cl)ccc21 (stereo not drawn),200,125,100,125,1000,1000,1000,,,
NYSTATIN,,,,,,,,100,100,100
C=CCn1c(=O)c(C2C3=C(CC(C)(C)CC3=O)Oc3cc(C)oc(=O)c32)cc2cc(C)ccc21 (stereo not drawn),500,125,125,250,1000,250,250,,,
C=CCn1c(=O)c(C2C3=C(CCCC3=O)Oc3c2c(=O)oc2ccccc32)cc2cc(OC)ccc21 (stereo not drawn),100,500,62.5,62.5,500,1000,1000,,,
C=CCn1c(=O)c(C2C3=C(CCCC3=O)Oc3c2c(=O)oc2ccccc32)cc2cc(C)ccc21 (stereo not drawn),20,250,100,250,250,500,500,,,
C=CCn1c(=O)c(C2C3=C(CC(C)(C)CC3=O)Oc3cc(C)oc(=O)c32)cc2cc(OC)ccc21 (stereo not drawn),500,250,500,250,500,1000,1000,,,
C=CCn1c(=O)c(C2C3=C(CC(C)(C)CC3=O)Oc3c2c(=O)oc2ccccc32)cc2ccccc21 (stereo not drawn),500,500,250,250,250,1000,1000,,,
C=CCn1c(=O)c(C2C3=C(CCCC3=O)Oc3cc(C)oc(=O)c32)cc2ccccc21 (stereo not drawn),125,250,200,250,500,200,200,,,
C=CCn1c(=O)c(C2C3=C(CCCC3=O)Oc3cc(C)oc(=O)c32)cc2cc(Cl)ccc21 (stereo not drawn),500,100,500,100,1000,500,1000,,,
C=CCn1c(=O)c(C2C3=C(CC(C)(C)CC3=O)Oc3c2c(=O)oc2ccccc32)cc2cc(OC)ccc21 (stereo not drawn),250,125,125,125,500,> 1000,> 1000,,,
CC1(C)S[C@@H]2[C@H](NC(=O)[C@H](N)c3ccccc3)C(=O)N2[C@H]1C(=O)O [AMPICILLIN],100,100,,250,,,,,,
C=CCn1c(=O)c(C2C3=C(CCCC3=O)Oc3cc(C)oc(=O)c32)cc2cc(C)ccc21 (stereo not drawn),125,500,250,500,1000,500,1000,,,
C=CCn1c(=O)c(C2C3=C(CC(C)(C)CC3=O)Oc3cc(C)oc(=O)c32)cc2cc(Cl)ccc21 (stereo not drawn),250,125,500,125,1000,> 1000,> 1000,,,
COC1=CC(=O)C[C@@H](C)[C@]12Oc1c(Cl)c(OC)cc(OC)c1C2=O [GRISEOFULVIN],,,,,500,100,100,,,
C=CCn1c(=O)c(C2C3=C(CC(C)(C)CC3=O)Oc3c2c(=O)oc2ccccc32)cc2cc(C)ccc21 (stereo not drawn),200,250,50,125,500,500,500,,,
C=CCn1c(=O)c(C2C3=C(CCCC3=O)Oc3cc(C)oc(=O)c32)cc2cc(OC)ccc21 (stereo not drawn),125,200,250,200,500,1000,1000,,,
O=C(N[C@H](CO)[C@H](O)c1ccc([N+](=O)[O-])cc1)C(Cl)Cl [CHLORAMPHENICOL],50,50,50,50,,,,,,
C=CCn1c(=O)c(C2C3=C(CC(C)(C)CC3=O)Oc3c2c(=O)oc2ccccc32)cc2cc(Cl)ccc21 (stereo not drawn),100,100,100,62.5,1000,1000,1000,,,
O=C(O)c1cn(C2CC2)c2cc(N3CCNCC3)c(F)cc2c1=O [CIPROFLOXACIN],25,50,,50,,,,,,
